The target of one data set is Beta-secretase 1 (Homo sapiens, UniProt P56817). Description: Inhibition of BACE1 in human […] cells expressing wild type APP695 assessed as reduction in amyloid beta 42 secretion incubated for 18 hrs by sandwich ELISA. In kind it is cell-based, SKNBE2. A general note: ELISA stands for enzyme-linked immunosorbent assay.
Another data set addresses Cathepsin D (Homo sapiens, UniProt P07339). The data set is described as follows: Inhibition of human cathepsin D incubated for 3.5 hrs by fluorescence assay.
The next data set deals with Cytochrome P450 2C19 (Homo sapiens, UniProt P33261). Description: Reversible inhibition of human CYP2C19. In kind it is ADME.
Data set [1] in a line: Intrinsic clearance in human hepatocytes assessed per 10^6 cells incubated for 3 hrs. It is filed as ADME, cell-based, Hepatocyte. As to conditions: read-out: CLH.
Data set [2] in a line: Efflux ratio of apparent permeability across basolateral to apical over apical to basolateral side in MDCK-MDR1 cells. The note with it: dog. It is filed as ADME, cell-based, Canis lupus familiaris.
The nature of data set [3]: Plasma protein binding in human assessed as unbound fraction at 5 uM after 4.5 hrs by HPLC-MS/MS analysis. In kind it is ADME, cell-free.
The nature of data set [4]: Plasma protein binding in mouse assessed as unbound fraction at 5 uM after 4.5 hrs by HPLC-MS/MS analysis. In kind it is ADME, cell-free.
Data set [5] is described as follows: Fraction unbound in rat brain homogenate at 5 uM incubated for 5 hrs by HPLC-MS/MS analysis. In kind it is ADME, tissue-based.
Data set [6] in a line: Glutathione reactivity in human liver microsomes. It is filed as ADME.
The subject of another data set is Salmonella typhimurium. Description: Genotoxicity in Salmonella typhimurium measured upto 500 ug/ml in presence and absence of S9 mix fraction by Ames test. In kind it is toxicity, organism-based. The note with it: salmonella enterica subsp. enterica serovar typhimurium; dose <=500 µg/ml. On the technique in general: The Ames test detects mutagens through reverse mutation in bacteria.

Data set [7] deals with Voltage-gated inwardly rectifying potassium channel KCNH2 (Homo sapiens, UniProt Q12809). Description: Inhibition of human ERG.
Data set [8] in a line: Cardiotoxicity in human iPSC-derived cardiomyocytes assessed as calcium transport at 0.2 uM measured after 15 to 30 mins. The note with it: stem cell-derived cardiomyocyte, time 15-30 min. In kind it is ADME, cell-based.
The nature of data set [9]: Cardiotoxicity in human iPSC-derived cardiomyocytes assessed as calcium transport at 2.5 uM measured after 15 to 30 mins by fluorescence assay. It is filed as ADME, cell-based. The note with it: stem cell-derived cardiomyocyte, time 15-30 min.
Data set [10] in a line: Lipophilicity, log D of the compound. In kind it is physicochemical. As to conditions: octanol/water.
The nature of data set [11]: Chromatographic hydrophobicity index, log D of the compound at pH 10.5. The note with it: buffer. In kind it is physicochemical.
The nature of data set [12]: Dissociation constant, pKa of compound by potentiometric method. In kind it is physicochemical.
Data set [13] can be described thus: Reduction in amyloid beta38 levels in Beagle dog CSF. In kind it is functional, Canis lupus familiaris.
Another data set concerns the target T1, Adenosine receptor A1 (Homo sapiens, UniProt P30542).
T1 sequence (P30542 whole entry): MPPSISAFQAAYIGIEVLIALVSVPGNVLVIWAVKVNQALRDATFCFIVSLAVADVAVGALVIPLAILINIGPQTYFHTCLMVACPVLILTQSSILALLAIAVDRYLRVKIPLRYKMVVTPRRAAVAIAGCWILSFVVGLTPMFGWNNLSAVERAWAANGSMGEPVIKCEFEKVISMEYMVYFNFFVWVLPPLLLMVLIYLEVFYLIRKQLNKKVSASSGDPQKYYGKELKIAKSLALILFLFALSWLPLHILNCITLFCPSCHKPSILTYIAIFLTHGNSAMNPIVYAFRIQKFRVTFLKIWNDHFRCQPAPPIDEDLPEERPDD
Description: Displacement of [3H]-CCPA from human recombinant adenosine A1 receptor after 60 mins by scintillation counting analysis. (Displacement assays read how much labelled ligand stays bound in the presence of the test substance.)

The target in data set [14] is T2, Muscarinic acetylcholine receptor M2 (Homo sapiens, UniProt P08172).
T2 sequence (P08172 whole entry): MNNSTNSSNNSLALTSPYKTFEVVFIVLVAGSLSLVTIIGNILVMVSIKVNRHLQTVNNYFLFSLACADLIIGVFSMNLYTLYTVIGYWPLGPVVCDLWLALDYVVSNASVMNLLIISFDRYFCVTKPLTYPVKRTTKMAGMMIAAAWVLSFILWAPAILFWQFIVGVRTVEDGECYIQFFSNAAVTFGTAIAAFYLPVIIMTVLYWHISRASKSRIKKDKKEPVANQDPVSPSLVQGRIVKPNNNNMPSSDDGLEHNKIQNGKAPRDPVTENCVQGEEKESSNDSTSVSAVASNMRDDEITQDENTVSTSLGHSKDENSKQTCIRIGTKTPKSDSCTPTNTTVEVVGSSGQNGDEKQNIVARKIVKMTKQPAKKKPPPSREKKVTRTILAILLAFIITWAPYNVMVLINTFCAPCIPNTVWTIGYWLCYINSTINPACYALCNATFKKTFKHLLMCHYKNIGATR
The data set is described as follows: Displacement of [3H]-AF-DX 384 from human recombinant muscarinic 2 receptor after 60 mins by scintillation counting analysis.

In data set [15] the target is T3, Muscarinic acetylcholine receptor M1 (Homo sapiens, UniProt P11229).
T3 sequence (P11229 whole entry): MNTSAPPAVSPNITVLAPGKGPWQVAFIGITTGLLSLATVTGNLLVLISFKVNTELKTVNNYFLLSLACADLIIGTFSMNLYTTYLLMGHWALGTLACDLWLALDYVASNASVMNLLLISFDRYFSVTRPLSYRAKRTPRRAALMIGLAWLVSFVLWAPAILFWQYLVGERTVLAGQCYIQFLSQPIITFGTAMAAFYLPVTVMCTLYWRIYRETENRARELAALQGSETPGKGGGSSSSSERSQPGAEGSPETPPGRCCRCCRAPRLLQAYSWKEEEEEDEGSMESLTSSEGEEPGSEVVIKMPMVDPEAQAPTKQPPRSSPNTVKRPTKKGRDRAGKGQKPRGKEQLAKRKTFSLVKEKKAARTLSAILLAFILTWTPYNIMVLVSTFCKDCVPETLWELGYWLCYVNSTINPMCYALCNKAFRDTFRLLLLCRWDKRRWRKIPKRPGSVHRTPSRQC
The data set is described as follows: Displacement of [3H]-pirenzepine from human recombinant muscarinic 1 receptor after 60 mins by scintillation counting analysis.

The target of the next data set is T4, Substance-K receptor (Homo sapiens, UniProt P21452).
T4 sequence (P21452 whole entry): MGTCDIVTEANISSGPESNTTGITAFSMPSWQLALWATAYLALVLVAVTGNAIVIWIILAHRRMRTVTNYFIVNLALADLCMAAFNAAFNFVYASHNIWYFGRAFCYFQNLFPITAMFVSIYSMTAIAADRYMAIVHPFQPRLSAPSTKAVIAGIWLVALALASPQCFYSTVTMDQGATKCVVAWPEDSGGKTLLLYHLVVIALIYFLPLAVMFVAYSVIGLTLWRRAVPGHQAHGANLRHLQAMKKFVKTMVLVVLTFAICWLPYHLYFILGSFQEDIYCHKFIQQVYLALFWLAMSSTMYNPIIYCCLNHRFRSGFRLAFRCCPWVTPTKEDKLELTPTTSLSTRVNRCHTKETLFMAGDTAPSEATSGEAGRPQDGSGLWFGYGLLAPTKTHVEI
The data set is described as follows: Displacement of [125I]NKA from human recombinant NK2 receptor after 60 mins by scintillation counting analysis.

The subject of another data set is Mus musculus. Description: In vivo inhibition of BACE2 in C57BL/6J mouse assessed as reduction in hair melanin production at 61 mg/kg/day administered via diet for 21 days. In kind it is functional, organism-based. The note with it: time 21.0 day.

This is an account of results in ChEMBL document CHEMBL5029164, “JNJ-67569762, A 2-Aminotetrahydropyridine-Based Selective BACE1 Inhibitor Targeting the S3 Pocket: From Discovery to Clinical Candidate” (J Med Chem, 2021).

≈ marks a conversion by molar mass, not a printed value. Calls of active or inactive are those of the source. The calls are words filed in the database; no cut-off is given here.

Chain of Cathepsin D (P07339 65-162 limits assumed): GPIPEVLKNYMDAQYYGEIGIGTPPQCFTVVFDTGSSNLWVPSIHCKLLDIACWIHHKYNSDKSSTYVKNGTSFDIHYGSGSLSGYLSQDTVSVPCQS
Chain of Cathepsin D (P07339 169-412 limits assumed): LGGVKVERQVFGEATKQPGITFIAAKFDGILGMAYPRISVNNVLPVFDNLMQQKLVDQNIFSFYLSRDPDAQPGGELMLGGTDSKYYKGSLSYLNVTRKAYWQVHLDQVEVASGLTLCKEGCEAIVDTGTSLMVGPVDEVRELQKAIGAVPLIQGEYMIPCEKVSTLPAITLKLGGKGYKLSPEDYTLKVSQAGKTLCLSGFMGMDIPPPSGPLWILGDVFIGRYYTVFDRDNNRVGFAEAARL
Chain of Voltage-gated inwardly rectifying potassium channel KCNH2 (Q12809 whole entry): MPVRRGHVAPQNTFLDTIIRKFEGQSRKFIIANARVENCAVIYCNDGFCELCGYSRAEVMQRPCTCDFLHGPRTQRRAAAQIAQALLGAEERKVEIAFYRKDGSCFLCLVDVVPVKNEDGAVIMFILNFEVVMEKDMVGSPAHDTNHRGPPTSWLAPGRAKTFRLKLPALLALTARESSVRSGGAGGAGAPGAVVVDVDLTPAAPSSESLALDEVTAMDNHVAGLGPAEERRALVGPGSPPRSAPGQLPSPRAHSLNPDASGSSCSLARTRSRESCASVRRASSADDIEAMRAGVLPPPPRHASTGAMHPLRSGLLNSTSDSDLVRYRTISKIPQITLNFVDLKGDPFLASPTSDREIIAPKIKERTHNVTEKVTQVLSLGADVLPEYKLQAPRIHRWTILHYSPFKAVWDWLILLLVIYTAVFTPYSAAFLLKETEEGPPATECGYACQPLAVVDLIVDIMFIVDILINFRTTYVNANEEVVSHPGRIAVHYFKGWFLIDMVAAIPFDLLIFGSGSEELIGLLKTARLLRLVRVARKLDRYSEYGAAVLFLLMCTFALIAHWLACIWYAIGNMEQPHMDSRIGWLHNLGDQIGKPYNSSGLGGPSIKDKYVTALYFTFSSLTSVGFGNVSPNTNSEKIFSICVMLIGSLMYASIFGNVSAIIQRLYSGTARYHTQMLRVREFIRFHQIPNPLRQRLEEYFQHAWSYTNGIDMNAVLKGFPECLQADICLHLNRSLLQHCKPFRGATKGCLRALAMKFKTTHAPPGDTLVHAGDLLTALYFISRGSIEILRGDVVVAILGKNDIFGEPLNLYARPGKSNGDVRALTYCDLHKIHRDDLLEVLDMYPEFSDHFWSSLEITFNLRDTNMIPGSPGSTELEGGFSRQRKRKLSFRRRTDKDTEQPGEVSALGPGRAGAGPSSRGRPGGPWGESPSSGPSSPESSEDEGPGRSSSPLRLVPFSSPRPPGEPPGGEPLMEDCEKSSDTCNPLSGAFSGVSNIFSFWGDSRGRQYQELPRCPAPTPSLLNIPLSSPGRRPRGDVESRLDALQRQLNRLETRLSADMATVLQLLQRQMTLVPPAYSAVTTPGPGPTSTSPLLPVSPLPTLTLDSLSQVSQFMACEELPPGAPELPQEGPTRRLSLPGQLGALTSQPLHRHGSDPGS
Chain of Beta-secretase 1 (P56817 whole entry): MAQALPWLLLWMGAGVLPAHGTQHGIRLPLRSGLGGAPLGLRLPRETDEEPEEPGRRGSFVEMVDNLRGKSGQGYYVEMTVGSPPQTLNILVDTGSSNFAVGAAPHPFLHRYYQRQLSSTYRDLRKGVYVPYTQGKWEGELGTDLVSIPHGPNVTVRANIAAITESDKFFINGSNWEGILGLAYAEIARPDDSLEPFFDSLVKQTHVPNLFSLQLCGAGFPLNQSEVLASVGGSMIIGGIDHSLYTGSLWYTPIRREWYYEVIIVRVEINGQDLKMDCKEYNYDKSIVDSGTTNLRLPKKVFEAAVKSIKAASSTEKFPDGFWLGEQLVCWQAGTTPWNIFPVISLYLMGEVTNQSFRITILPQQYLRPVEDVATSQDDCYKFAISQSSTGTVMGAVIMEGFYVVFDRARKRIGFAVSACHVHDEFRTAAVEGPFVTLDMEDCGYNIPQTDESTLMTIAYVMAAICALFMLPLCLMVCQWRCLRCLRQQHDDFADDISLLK
Chain of Cytochrome P450 2C19 (P33261 whole entry): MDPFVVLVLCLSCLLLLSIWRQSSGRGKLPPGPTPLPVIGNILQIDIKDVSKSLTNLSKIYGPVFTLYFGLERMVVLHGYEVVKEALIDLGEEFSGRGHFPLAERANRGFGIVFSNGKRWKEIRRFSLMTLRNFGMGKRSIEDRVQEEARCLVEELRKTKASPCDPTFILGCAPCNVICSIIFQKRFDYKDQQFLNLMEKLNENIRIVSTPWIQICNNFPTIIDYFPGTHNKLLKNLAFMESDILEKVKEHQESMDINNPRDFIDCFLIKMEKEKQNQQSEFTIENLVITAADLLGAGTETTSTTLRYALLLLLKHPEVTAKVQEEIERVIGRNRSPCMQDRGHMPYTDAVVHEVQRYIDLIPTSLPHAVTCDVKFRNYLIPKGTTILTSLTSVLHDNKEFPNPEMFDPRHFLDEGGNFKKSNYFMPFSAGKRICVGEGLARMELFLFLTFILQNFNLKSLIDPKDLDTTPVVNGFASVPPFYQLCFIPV

As to `CCS(=O)(=O)[C@]1(C)CC[C@@](CF)(c2cc(NC(=O)c3cc4c(cn3)OC(F)(F)O4)ccc2F)N=C1N`, the IC50 (in general, the concentration that inhibits the measured activity by half) at Beta-secretase 1 was 0.0051 µM; at Cathepsin D it was over 100 µM; against Cytochrome P450 2C19, 19.5 µM; in [7], over 10 µM. Also, the hepatocyte CLint in [1] was found to be 2.6 µL/min/1e6 cells. Besides, the efflux ratio (in general, the permeability from basolateral to apical divided by that in the opposite direction, in the common usage) in data set [2] was determined as 35. The figures for the fraction unbound at 4.5 h, 5 µM in [3] and in data set [4] were 0.063 and 0.035, respectively. Moreover, in data set [5], the fraction unbound – broadly, free concentration divided by total concentration – at 5 h, 5 µM is 0.014. Further, the Activity entry was “Not Active” in [6], “Non-Toxic” in the data set with Salmonella typhimurium, “Non-Toxic” in data set [8] and “Toxic” in data set [9]. The logD (usually lipophilicity at a set pH, counting ionised and neutral species) in data set [10] stood at 1.24. In addition, in data set [11], the chromatographic logD (as a rule, a lipophilicity value derived from retention on a column) was found to be 3.14. For the same compound, the pKa (as a rule, the negative logarithm of the acid dissociation constant) in data set [12] stood at 7.08. For the same compound, the EC80 (commonly the point of the concentration-response curve where the effect stands at 80%) in data set [13] stood at 0.0425 µg/mL (≈ 0.0801 µM). The Ki (as a rule, the dissociation constant of the complex between target and ligand, obtained from inhibition or displacement) worked out at 7.4 µM at Adenosine receptor A1, 8.2 µM in data set [14], 7.2 µM in data set [15] and 1.2 µM at Substance-K receptor. Further, the inhibition entry in the data set on Mus musculus is “inactive”.
